In data set [1] the test system is cultured human colorectal cancer cells, HT-29. Conditions: HT-29, as obtained from Yakult Honsha; cited from earlier work.
Data set [2] has as its system cultured human colorectal cancer cells, HCT-116. To be noted: HCT-116, as obtained from Yakult Honsha; cited from earlier work.
Data set [3] has the same test system. The experiment in a line: Tumor size in nude mice with subcutaneously transplanted HCT-116 cells. In kind it is in vivo, nude mice (BALB/cAJcl-nu/nu). To be noted: 7 days after the administration. How it is done: (§1) Six-week-old, male nude mice (BALB/cAJcl-nu/nu) purchased from CLEA Japan, Inc. were used and allowed to ingest a general feed and drink water freely in a thermostatic chamber. A protocol following the animal experiment guideline in School of Medicine, Keio University was applied and then approved. Then, this examination was carried out humanely.
(§2) CAMPTO™ as a preparation of CPT-11 and a solvent for dissolving Campto (hereinafter, referred to as “solvent”) were obtained from Yakult Honsha, Co., Ltd.
(§3) After the transplantation, a tumor size was measured by using the following formula: (longer tumor diameter)×(shorter tumor diameter)^2/2. When the tumor size reached 300 to 400 mm^3, the mice were randomly assigned to a CPT-11 administration group and a solvent administration group (a CPT-11 non-administration group). The day when the mice were assigned to two groups was defined as day 0. CAMPTO™ as a preparation of CPT-11 in an amount of 4.5 mL/kg (90 mg/kg as CPT-11 amount) and the solvent for dissolving CAMPTO™ (D-sorbitol, lactic acid, pH adjuster) were administered slowly to the CPT-11 administration group and a CPT-11 non-administration group, respectively, from the tail vein. The tumor size was measured on day 0, and 12 hours, 24 hours, 72 hours, and 7 days after the administration. The blood was collected after the dissection. After the centrifugation of the collected blood at 10,000 rpm for 10 minutes, a serum fraction was frozen with liquid nitrogen and stored at −80° C. until the serum fraction was used in preparation of a sample for metabolome analysis. As a control group, a cancer cell-non-transplanted group was produced and the same treatment was carried out.
After the transplantation, a tumor size was measured by using the following formula: (longer tumor diameter)×(shorter tumor diameter)^2/2. When the tumor size reached 300 to 400 mm^3, the mice were randomly assigned to a CPT-11 administration group and a solvent administration group. The tumor size was measured on day 0, and 12 hours, 24 hours, 72 hours, and 7 days after the administration. […]

In data set [4] the test system is cultured human colorectal cancer cells, HT-29. As to the kind of experiment: Tumor size in nude mice with subcutaneously transplanted HT-29 cells. In kind it is in vivo, nude mice (BALB/cAJcl-nu/nu). Conditions: conclusion from tumor size, 7 days after the administration. Here is the method:
as §1, §2
After the transplantation, a tumor size was measured by using the following formula: (longer tumor diameter)×(shorter tumor diameter)^2/2. When the tumor size reached 300 to 400 mm^3, the mice were randomly assigned to a CPT-11 administration group and a solvent administration group (a CPT-11 non-administration group). The day when the mice were assigned to two groups was defined as day 0. […] The tumor size was measured on day 0, and 12 hours, 24 hours, 72 hours, and 7 days after the administration. […]
After the transplantation, a tumor size was measured by using the following formula: (longer tumor diameter)×(shorter tumor diameter)^2/2. […] The tumor size was measured on day 0, and 12 hours, 24 hours, 72 hours, and 7 days after the administration. […]

Data set [5] concerns cultured human colorectal cancer cells, HCT-116. The experiment in a line: Serum metabolome (CE-TOFMS) of HCT-116 cancer-bearing mice after CPT-11. In kind it is in vivo, nude mice (BALB/cAJcl-nu/nu). To be noted: HCT-116 transplanted, 90 mg/kg as CPT-11. Here is the method: as §3, with “After the centrifugation of the collected blood at 10,000 rpm for 10 minutes, a serum fraction was frozen with liquid nitrogen and stored at −80° C. until the serum fraction was used in preparation of a sample for metabolome analysis. As a control group, a cancer cell-non-transplanted group was produced and the same treatment was carried out.” left out
(§4) The comprehensive measurement of the metabolites in a serum was carried out by using a capillary electrophoresis time-of-flight mass spectrometry (CE-TOFMS) system manufactured by Agilent Technologies, Inc. In this examination, a voltage was applied such that an output of the capillary was a cathode, and cationic metabolites were comprehensively measured. […]

Data set [6] deals with cultured human colorectal cancer cells, HT-29. The experiment in a line: Serum metabolome (CE-TOFMS) of HT-29 cancer-bearing mice after CPT-11. In kind it is in vivo, nude mice (BALB/cAJcl-nu/nu). Conditions: HT-29 transplanted, 90 mg/kg as CPT-11. Here is the method:
as §3, with “After the centrifugation of the collected blood at 10,000 rpm for 10 minutes, a serum fraction was frozen with liquid nitrogen and stored at −80° C. until the serum fraction was used in preparation of a sample for metabolome analysis. As a control group, a cancer cell-non-transplanted group was produced and the same treatment was carried out.” left out
as §4

For data set [7] the following is noted: background statement; cited from earlier work.
Setting [8] is: 12 hours after the administration.
Setting [9] is: 24 hours after the administration.

Structures can show the parent of a compound that is named as a salt.

`CCc1c2c(nc3ccc(O)cc13)-c1cc3c(c(=O)n1C2)COC(=O)[C@]3(O)CC` [SN-38, 7-ethyl-10-hydroxycamptothecin]: the “sensitivity of cells to SN-38” value was “low sensitivity” in data set [1] and “high sensitivity” in data set [2].

Take `CCc1c2c(nc3ccc(OC(=O)N4CCC(N5CCCCC5)CC4)cc13)-c1cc3c(c(=O)n1C2)COC(=O)[C@]3(O)CC` [CPT-11, Irinotecan hydrochloride]: the “tumor size, CPT-11 group with HCT-116 vs CPT-11 group with HT-29” value in data set [3] (90 mg/kg as CPT-11, tail vein) is recorded as “significant difference (p=0.04979)”. In addition, the “tumor size, CPT-11 administration group vs solvent administration group” value in data set [3] (HCT-116 transplanted, 90 mg/kg as CPT-11, tail vein) was “significant difference (p=0.01319)”. In data set [3] (conclusion from tumor size), the “sensitivity of HCT-116 to CPT-11 compared to HT-29” value is recorded as “high sensitivity”. Further, the “sensitivity of HT-29 to CPT-11 compared to HCT-116” value in data set [4] is “low sensitivity”. The “serum expression level of peak at m/z 104.070 (N,N-dimethyl glycine), CPT-11 administration group” value in data set [5] (setting [8]) is on record as “decreased to the same level as in the control group”. In data set [5] (setting [9]), the “serum expression level of peak at m/z 166.086 (L-phenylalanine), CPT-11 administration group” value is reported as “decreased to the same level as in the control group”. In data set [6] (setting [8]), the “serum expression level of peak at m/z 104.070 (N,N-dimethyl glycine), CPT-11 group vs solvent group” value is listed as “the same level”. Further, in data set [6] (setting [9]), the “serum expression level of peak at m/z 166.086 (L-phenylalanine), CPT-11 group vs solvent group” value is given as “the same level”.

Consider `CCc1c2c(nc3ccc(O[C@@H]4O[C@H](C(=O)O)[C@@H](O)[C@H](O)[C@H]4O)cc13)-c1cc3c(c(=O)n1C2)COC(=O)[C@]3(O)CC` [SN-38G], for which the cytotoxicity entry in data set [7] is on record as “no cytotoxicity”.
